Assay: gradient 5% acetonitrile 3 min, to 50% in 2 min, to 85% in 15 min, held 3 min, 100 µL/min
Details: column: Zorbax Extend-C18 2.1 x 50 mm; eluents: water / acetonitrile, 0.1% formic acid
Outline: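 The mobile phases were water and acetonitrile, each with 0.1% formic acid, pumped at 100 μL/min through a Zorbax Extend-C18 column (2.1 × 50 mm, 1.8 μm). Pure standards were injected as mixtures of ~100 molecules and detected by a quadrupole time-of-flight mass spectrometer in positive and negative ionization mode. Retention time came from computationally picked adduct peaks, each inspected by hand.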

## CC(C)C(=O)Nc1cccc(N2CC(C(=O)Nc3ccc(C(C)C)cc3)CC2=O)c1 (stereo not drawn)
  RP-LC retention time: 886 s

## CCN(CC)C(=O)Cn1c(=O)c2cnc(-c3ccccc3)nc2n(C)c1=O
  RP-LC retention time: 854 s

## CCC(=O)N1CCc2cc(-c3ccc(C(=O)NCCc4c(C)noc4C)cc3)ccc21
  RP-LC retention time: 750 s

## Cc1ccc(Cn2c(=O)n(CCNC(=O)c3cccs3)c3ncccc32)cc1
  RP-LC retention time: 808 s

## CCCN(CC1CCOC1)C(=O)Nc1cccc(Cl)c1 (stereo not drawn)
  RP-LC retention time: 827 s

## CCn1cc(CCNS(=O)(=O)Cc2ccccc2Cl)c2cccnc21
  RP-LC retention time: 804 s

## Cc1nn(CC(=O)NCCCN2CCOCC2)c(=O)c2c(-n3cccc3)n(-c3ccc(F)cc3)nc12
  RP-LC retention time: 665 s

## CC(=O)NCc1ccc(-c2noc(/C=C/c3cccc(Cl)c3)n2)s1
  RP-LC retention time: 903 s

## CC1=C(c2ccc(Cl)cc2)S(=O)(=O)N=C1N1CCCN(C(=O)C2CCOC2)CC1 (stereo not drawn)
  RP-LC retention time: 733 s

## CN(C)CCCNC(=O)C1CCN(c2nc3ccc(-c4cccc(F)c4)nc3s2)CC1
  RP-LC retention time: 691 s

## CCc1ccc(NC(=O)Cn2c(C)nc3onc(C)c3c2=O)cc1
  RP-LC retention time: 845 s

## COc1ccc(C)cc1NS(=O)(=O)c1cc(-c2c(C)noc2NC(C)=O)ccc1C
  RP-LC retention time: 804 s

## Cc1c(CCC(=O)NCC(=O)N[C@@H](C(=O)O)C(C)C)c(=O)oc2c(C)c(O)ccc12
  RP-LC retention time: 636 s

## Cc1ccc(-c2nnc(Cc3nc(-c4ccccc4Cl)no3)o2)cc1F
  RP-LC retention time: 1110 s

## COc1ccc(OC)c(S(=O)(=O)N(C)CC2(C)CCOCC2)c1
  RP-LC retention time: 852 s

## Cc1ccccc1S(=O)(=O)N1CCCC(C)(C(=O)NCc2ccccc2)C1 (stereo not drawn)
  RP-LC retention time: 944 s

## CCc1ccccc1NC(=O)N1C[C@@H](F)C[C@H]1C(=O)N1CCc2ccccc2C1
  RP-LC retention time: 811 s

## Cc1nc(-c2ccccc2)cc2nn(CC(=O)Nc3ccccc3Br)c(=O)n12
  RP-LC retention time: 995 s

## CC(C)N1C(=O)C2(CCCC2)C1C(=O)NCC1CCCCC1 (stereo not drawn)
  RP-LC retention time: 775 s

## O=C(Cn1ccc2ccc(N3CCOCC3)nc21)NCc1ccc(Br)cc1
  RP-LC retention time: 915 s

## CN(CC1CCOCC1)S(=O)(=O)Cc1cccc(Cl)c1
  RP-LC retention time: 835 s

## CCc1nnc(-c2cc(C)n(CC(=O)Nc3cc(C)cc(C)c3)c2C)o1
  RP-LC retention time: 887 s

## COc1cc(OC)c(NC(=O)Cn2c(=O)n(-c3ccccc3)c(=O)c3c2cc(C)n3C)cc1Cl
  RP-LC retention time: 861 s

## Cc1ccc(C)c(NC(=O)C2CCCN(S(=O)(=O)c3c[nH]c(C(=O)N4CCCC4)c3)C2)c1 (stereo not drawn)
  RP-LC retention time: 821 s

## CCC(=O)N(CCOC)CC(=O)N1CCc2sccc2C1COc1ccc(Cl)cc1 (stereo not drawn)
  RP-LC retention time: 907 s

## COc1ccc(-c2cc3n(n2)CCCN(C(=O)C2CCOC2)C3)cc1 (stereo not drawn)
  RP-LC retention time: 703 s

## COc1cccc(COC(=O)C2=CN(C)S(=O)(=O)N=C2C)c1
  RP-LC retention time: 921 s

## CCC(CC)C(=O)N1CCN(c2nc(CN3CCOCC3)cs2)CC1
  RP-LC retention time: 597 s

## O=C(NCc1csc(-c2cccs2)n1)C1CCN(C(=O)c2ccc(F)c(F)c2)CC1
  RP-LC retention time: 770 s

## Cn1c(=O)n([C@H]2CCCN(C(=O)Nc3ccc4c(c3)OCCO4)C2)c2ncccc21
  RP-LC retention time: 684 s

## CCN1CCn2cc(S(=O)(=O)Nc3cc(C)ccc3C)cc2C1=O
  RP-LC retention time: 752 s

## O=C(c1cccc(Cl)c1)N1CCN(C(=O)c2nnn3c2COC(c2ccccc2)C3)CC1 (stereo not drawn)
  RP-LC retention time: 900 s

## CN1C(=O)C2CCCCN2c2ccc(C(=O)NCc3ccc4c(c3)OCO4)cc21 (stereo not drawn)
  RP-LC retention time: 563 s

## CCOc1ccc(CN2CCN(C(=O)c3ccc(C#N)cc3)CC2)cn1
  RP-LC retention time: 596 s

## Cc1cccc(S(=O)(=O)N2CCN(c3cnn4c(C5CC5)nnc4c3)CC2)c1
  RP-LC retention time: 752 s

## O=C(Cc1cc(-c2ccc3c(c2)OCCO3)on1)N1CCN(C(=O)c2ccco2)CC1
  RP-LC retention time: 680 s

## COCc1cc(=O)n(CC(=O)Nc2ccc(Cl)cc2)c(N2CCOCC2)n1
  RP-LC retention time: 865 s

## OC(CN1CCC(Cc2ccc(F)cc2)CC1)c1ccc(Cl)cc1 (stereo not drawn)
  RP-LC retention time: 825 s

## CCC(c1cccs1)N1C(=O)[C@H]2CN(S(=O)(=O)c3ccc(F)c(F)c3)C[C@H]2C1=O (stereo partly drawn)
  RP-LC retention time: 1020 s

## COc1ccc(C(=O)NCc2cccnc2OC)c(OC)n1
  RP-LC retention time: 840 s

## CCN(CC)CCCNC(=O)C1CCN(c2nc3cccnc3s2)CC1
  RP-LC retention time: 570 s

## COc1ccc(CN2C[C@@H]3C(=O)N(C)C(=O)[C@@H]3C2)c(OC)c1
  RP-LC retention time: 587 s

## CN(CC1(C)CCOCC1)S(=O)(=O)c1ccc(C(F)(F)F)cc1
  RP-LC retention time: 997 s

## CCCN1CCn2cc(S(=O)(=O)Nc3ccccc3C)cc2C1=O
  RP-LC retention time: 746 s

## CC(=O)N1CCC(C(=O)Nc2cc(-c3nnc(C)o3)sc2C)CC1
  RP-LC retention time: 648 s

## O=C(c1ccc(S(=O)(=O)NCc2cccnc2)o1)N1CCN(c2ccccc2F)CC1
  RP-LC retention time: 624 s

## CCS(=O)(=O)c1ccc(C(=O)Nc2nc3c(s2)CC(C)CC3)cc1 (stereo not drawn)
  RP-LC retention time: 867 s

## O=C(Nc1cccc(-c2nnc3n2CCCC3)c1)c1nccc2ccccc12
  RP-LC retention time: 769 s

## COC(=O)Nc1nc(CC(=O)Nc2ccc(F)c(Cl)c2)cs1
  RP-LC retention time: 744 s

## Cc1cccc(OCC(=O)N2CCc3cc(-c4csc(C)n4)ccc32)c1
  RP-LC retention time: 847 s

## O=C(CCCn1nnc2ccccc2c1=O)Nc1nc2ccccc2[nH]1
  RP-LC retention time: 570 s

## O=C(Cn1c(=O)cc(C(=O)N2CCc3ccccc3C2)c2ccccc21)Nc1ccc2c(c1)OCCO2
  RP-LC retention time: 831 s

## CCC(=O)N(C1CCOCC1)C1CCN(Cc2cccc(Br)c2)CC1
  RP-LC retention time: 635 s

## CCOC(=O)c1cccc(NC(=O)Cn2c(C)nc3c(sc4nc(-c5ccccc5)ccc43)c2=O)c1
  RP-LC retention time: 1090 s

## CC(C)c1noc(-c2ccn3c(CC(=O)NC4CCCCCC4)nnc3c2)n1
  RP-LC retention time: 823 s

## CC(C)c1ccc(NC(=O)C2CCN(C(=O)c3ncn4c3COC(c3ccc(F)cc3)C4)CC2)cc1 (stereo not drawn)
  RP-LC retention time: 949 s

## CN(C)c1ccc(-c2nc3ccc(Cl)cn3c2Nc2ccc3c(c2)OCCO3)cc1
  RP-LC retention time: 744 s

## Cc1ccc(-c2nc(C)c(C(=O)NC(C)C)s2)cc1
  RP-LC retention time: 949 s

## Cc1c(C(=O)NCCOc2cccc3cccnc23)cnn1-c1ccccc1
  RP-LC retention time: 593 s

## Cc1cccc2c1CCN(C(=O)c1ccco1)[C@@H]2C
  RP-LC retention time: 931 s

## COc1ccc(OC)c(NC(=O)N2CCN(c3ccc(=O)n(-c4ccc(C)cc4)n3)CC2)c1
  RP-LC retention time: 835 s

## Cc1ccccc1NC(=O)NC1CCN(c2ccccc2)C1=O (stereo not drawn)
  RP-LC retention time: 781 s

## Cc1cc(C(=O)N2CCCC2)c2cc(Br)ccc2n1
  RP-LC retention time: 677 s

## CN(C)C(=O)c1cccc(COc2ccc(N3C(N)=NC(N)=NC3(C)C)cc2Cl)c1
  RP-LC retention time: 659 s

## CC(=O)Nc1nc(-c2cccnc2)cs1
  RP-LC retention time: 504 s

## Cc1ccc(NC(=O)c2cnc3c(c2)c(=O)n(C)c(=O)n3-c2ccccc2)cc1
  RP-LC retention time: 919 s

## O=C(COc1ccccc1)NCC1CC(=O)N(Cc2ccc(F)cc2)C1 (stereo not drawn)
  RP-LC retention time: 692 s

## CC(C)NC(=O)c1ccc(-c2nc3cc(NS(=O)(=O)Cc4cccc(F)c4)ccc3n2C)cc1
  RP-LC retention time: 687 s

## Cc1ccc(Nc2c(-c3cc(Br)ccc3F)nc3cc(C)ccn23)cc1
  RP-LC retention time: 818 s

## Cc1cnc(C2CC2)n1CCNS(=O)(=O)c1ccccc1Cl
  RP-LC retention time: 613 s

## CNC(=O)C1CCCN(c2nc3ncn(CC(=O)Nc4cccc(C(C)C)c4)c(=O)c3s2)C1 (stereo not drawn)
  RP-LC retention time: 711 s

## Cc1ccc2c(Nc3ccc(F)c(Cl)c3)c(-c3nc(C)no3)cnc2n1
  RP-LC retention time: 804 s

## Cc1cc(N(C)C)n2nc(-c3ccc(C(C)(C)C)cc3)nc2n1
  RP-LC retention time: 927 s

## Cc1cccc(-c2nnc(C)c(N3CCCC3)n2)c1
  RP-LC retention time: 656 s

## CCOC(=O)C1=C(CN2CCN(C(C)CC)CC2)NC(=O)NC1c1ccc(OC(C)C)cc1 (stereo not drawn)
  RP-LC retention time: 668 s

## COc1ccc(NC(=O)N2CCC(c3nc(C(=O)N4CCOCC4)c(C)o3)CC2)c(C)c1
  RP-LC retention time: 663 s

## Cn1c(C(=O)N2CCCC(C(=O)N3CCN(c4ccccn4)CC3)C2)cc2sccc21 (stereo not drawn)
  RP-LC retention time: 614 s

## O=C(Nc1cccc(Br)c1)C1CC(=O)N(c2n[nH]c3cccc(F)c23)C1 (stereo not drawn)
  RP-LC retention time: 824 s

## CC1(C)CC[C@]2(C(=O)n3ccnc3)CC[C@]3(C)[C@H](C(=O)C=C4[C@@]5(C)C=C(C#N)C(=O)C(C)(C)[C@@H]5CC[C@]43C)[C@@H]2C1
  RP-LC retention time: 1260 s

## CCN(CC)CCOCCOC(=O)C(CC)(CC)c1ccccc1
  RP-LC retention time: 763 s

## CC(C)N1Cc2cc(C(=O)N3CCC(Cc4ccccc4)CC3)sc2C1
  RP-LC retention time: 949 s

## COC(=O)c1ccccc1NC(=O)Cn1nc2n(c1=O)CCCCC2
  RP-LC retention time: 756 s

## Cc1nn(C(C)C(=O)NCCc2ccco2)c(=O)c2nn(-c3ccccc3)c(C)c12 (stereo not drawn)
  RP-LC retention time: 788 s

## O=C(c1ccc(Br)o1)N1CCC(c2cnn(-c3ccc(F)cc3)c2)CC1
  RP-LC retention time: 984 s

## Cc1oc(-c2ccc(Cl)cc2)nc1CN1CCC(C(=O)NCCCN(C)Cc2ccccc2)CC1
  RP-LC retention time: 615 s

## Cc1ccn2cc(-c3ccc(NS(=O)(=O)c4ccc(C)c([N+](=O)[O-])c4)cc3)nc2n1
  RP-LC retention time: 685 s

## CCOC(=O)N1CCN(C(=O)c2sc(NS(=O)(=O)c3ccccc3)nc2C)CC1
  RP-LC retention time: 651 s

## O=C(c1ccc(Cl)cc1)N1CCN(c2cnn3c(C4CC4)nnc3c2)CC1
  RP-LC retention time: 683 s
